These results are taken from patent US5795954A, “Factor VIIa inhibitors from Kunitz domain proteins” (Genentech, Inc., priority 1994, dated 1998).

Like-named read-outs stand apart in the source and are kept apart here. Positions of bridges follow the written chain, without caps; N, C: chain ends. No end group written: not given here.

Holding throughout (format): biochemical
Test [1] concerns normal human plasma, clotting initiated by TF membranes. The test can be described thus: tissue factor initiated prothrombin time (PT) assay. The method, then: FIG. 6. Prolongation of clotting time in the PT assay in normal human plasma. […] The uninhibited clotting time was 48 sec.
Clotting times were performed using the ACL 300 Research Coagulation Analyzer. For the prothrombin time (PT) assays, the incubation time was set at 120 sec and acquisition time at 120 to 600 sec depending on the expected outcome of the assay. Membranes from 293 cells expressing full length TF (Paborsky, L. R. et al., Biochemistry 28: 8072-8077 [1989]) were premixed with CaCl2. The sample (plasma and inhibitor) and reagent (CaCl2 /TF) were automatically mixed together after a 2 min incubation at 37° C. The clotting time was determined by optical assessment. The total incubation time of inhibitor with plasma before addition of CaCl2 /TF was ca. 5 min. Final concentrations were 2 to 20 μM inhibitor, 3.7 nM TF (0.9 μg/ml by protein content), 22.5 mM CaCl2, and 50% plasma in a total volume of 160 μL.

Test [2] relates to normal human plasma, clotting initiated by ellagic acid. The test can be described thus: activated partial thromboplastin time (APTT) assay. To be noted: ca. 7 μM inhibitor. Here is the method:
FIG. 7. Prolongation of clotting time in the APTT assay in normal human plasma. […] The uninhibited clotting time was 31 sec.
For the activated partial thromboplastin time (APTT) assays, the activation time was set at 120 sec and acquisition time at 300 to 600 sec depending on the expected outcome of the assay. Citrated normal human plasma and inhibitor were incubated together. The sample (plasma and inhibitor) and activator (Instrumentation Laboratories Ellagic acid/Phospholipid mix Test Reagent) were automatically pipetted and incubated together for 2 min at 37° C., then CaCl2 was added and clotting time determined by means of optical assessment. The total incubation time of inhibitor with plasma was ca. 3 min before addition of activator, and 5 min before addition of CaCl2.

Another test addresses T1, FXa (Homo sapiens, UniProt P00742).
T1 construct: purchased Haematologic Technologies Inc. (Essex Jct., Vt.)
The test can be described thus: FXa enzyme inhibition assay (Ki*).

A further test deals with T2, activated protein C (Homo sapiens, UniProt P04070).
T2 construct: purchased Haematologic Technologies Inc. (Essex Jct., Vt.)
The test can be described thus: activated protein C enzyme inhibition assay (Ki*).

A further test addresses thrombin (Homo sapiens, UniProt P00734). The test can be described thus: thrombin enzyme inhibition assay (Ki*).
In another test the target is T3, TF.cndot.FVIIa (Homo sapiens, UniProt P08709).
T3 construct: is generated by proteolysis of a single peptide bond from its zymogen Factor VII (FVII); purchased Haematologic Technologies Inc. (Essex Jct., Vt.); host or cells: TF1-243 made in house in E. coli
The test can be described thus: TF·FVIIa enzyme inhibition assay, apparent equilibrium dissociation constant (Ki*). The method, then:
Aliquots (25 μL) from each well of a microtiter plate containing the serially diluted inhibitors were transferred into new microtiter plates, each containing a different protease (100 μL) in the appropriate buffer. The proteases tested (protease concentration, buffer, substrate) were FVIIa (10 nM, Buffer A, 0.7 mM S2366), FXIa (1.0 nM, Buffer B containing 1 mg/ml BSA, 0.7 mM S2366), plasma kallikrein (3.5 nM, Buffer B, 0.5 mM S2302), and plasmin (15 nM, Buffer B, 1 mM S2251).

The next test has as its target T4, FXIIa (Homo sapiens, UniProt P00748).
T4 construct: purchased Enzyme Research Laboratories, Inc. (South Bend, Ind.)
T4 sequence (P00748 373-615 limits assumed): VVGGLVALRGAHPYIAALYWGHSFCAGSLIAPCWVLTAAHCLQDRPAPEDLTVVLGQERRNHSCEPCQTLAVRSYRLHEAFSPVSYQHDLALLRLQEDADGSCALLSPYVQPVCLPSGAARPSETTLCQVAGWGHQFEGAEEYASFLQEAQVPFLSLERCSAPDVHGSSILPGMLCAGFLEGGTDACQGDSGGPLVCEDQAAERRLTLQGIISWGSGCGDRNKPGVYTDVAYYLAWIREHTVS
T4 sequence (P00748 20-372 limits assumed): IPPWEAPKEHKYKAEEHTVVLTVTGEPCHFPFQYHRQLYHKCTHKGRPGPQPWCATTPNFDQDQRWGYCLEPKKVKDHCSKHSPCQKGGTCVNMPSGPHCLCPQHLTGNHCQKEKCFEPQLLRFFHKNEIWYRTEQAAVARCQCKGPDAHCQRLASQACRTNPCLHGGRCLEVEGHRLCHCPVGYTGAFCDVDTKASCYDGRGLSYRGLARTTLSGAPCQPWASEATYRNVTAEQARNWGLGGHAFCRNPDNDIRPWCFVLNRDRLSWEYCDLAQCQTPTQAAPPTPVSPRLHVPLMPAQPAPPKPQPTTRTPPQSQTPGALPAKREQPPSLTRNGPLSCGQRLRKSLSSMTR
The test can be described thus: FXIIa enzyme inhibition assay (Ki*).

Where [3] appears, read: equilibrium conditions, read-out: apparent Ki* with TF.cndot.FVIIa (FIG. 4).

T3 sequence (P08709 213-466 limits assumed): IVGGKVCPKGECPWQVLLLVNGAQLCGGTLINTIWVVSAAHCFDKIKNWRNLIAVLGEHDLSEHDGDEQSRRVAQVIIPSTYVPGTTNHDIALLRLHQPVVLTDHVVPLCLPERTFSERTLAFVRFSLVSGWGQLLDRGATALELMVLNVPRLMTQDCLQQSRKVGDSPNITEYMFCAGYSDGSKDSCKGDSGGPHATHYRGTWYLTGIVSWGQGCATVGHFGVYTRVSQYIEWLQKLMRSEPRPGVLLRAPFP
T3 sequence (P08709 61-212 limits assumed): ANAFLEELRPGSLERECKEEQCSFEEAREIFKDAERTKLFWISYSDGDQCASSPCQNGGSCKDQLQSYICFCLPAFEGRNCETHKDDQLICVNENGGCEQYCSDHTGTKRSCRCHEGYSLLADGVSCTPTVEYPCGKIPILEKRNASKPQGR
T3 sequence (P13726 33-275 partner limits assumed): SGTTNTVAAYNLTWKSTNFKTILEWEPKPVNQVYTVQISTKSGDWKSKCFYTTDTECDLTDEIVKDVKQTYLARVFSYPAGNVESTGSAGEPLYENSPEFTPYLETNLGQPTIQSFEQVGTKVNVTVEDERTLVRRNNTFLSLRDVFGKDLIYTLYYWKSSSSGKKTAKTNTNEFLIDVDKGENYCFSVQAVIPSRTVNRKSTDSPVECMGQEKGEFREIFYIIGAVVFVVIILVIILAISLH
T2 sequence (P04070 212-450 limits assumed): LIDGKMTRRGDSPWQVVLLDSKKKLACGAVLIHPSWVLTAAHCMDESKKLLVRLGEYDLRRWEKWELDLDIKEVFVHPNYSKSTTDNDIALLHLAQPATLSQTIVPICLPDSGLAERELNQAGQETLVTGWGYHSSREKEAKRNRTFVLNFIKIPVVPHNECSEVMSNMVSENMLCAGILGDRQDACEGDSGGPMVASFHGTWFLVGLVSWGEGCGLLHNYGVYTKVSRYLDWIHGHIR
T2 sequence (P04070 43-197 limits assumed): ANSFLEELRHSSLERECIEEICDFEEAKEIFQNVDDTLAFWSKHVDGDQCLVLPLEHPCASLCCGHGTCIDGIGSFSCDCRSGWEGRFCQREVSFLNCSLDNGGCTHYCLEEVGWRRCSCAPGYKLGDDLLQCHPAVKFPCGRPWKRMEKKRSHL
T1 sequence (P00742 235-488 limits assumed): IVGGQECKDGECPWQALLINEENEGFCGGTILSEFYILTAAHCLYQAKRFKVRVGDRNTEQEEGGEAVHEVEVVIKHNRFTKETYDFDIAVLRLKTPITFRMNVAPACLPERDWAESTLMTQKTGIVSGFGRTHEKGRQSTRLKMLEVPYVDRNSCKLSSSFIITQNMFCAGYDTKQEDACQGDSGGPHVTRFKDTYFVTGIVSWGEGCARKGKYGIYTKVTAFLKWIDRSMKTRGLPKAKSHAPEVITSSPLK
T1 sequence (P00742 41-179 limits assumed): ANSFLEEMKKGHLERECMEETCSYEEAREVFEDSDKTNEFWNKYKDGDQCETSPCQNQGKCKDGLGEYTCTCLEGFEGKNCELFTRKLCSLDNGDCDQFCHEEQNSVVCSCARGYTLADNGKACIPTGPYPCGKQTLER
Procedure for FXIIa: (§1) To aliquots of serial diluted inhibitor, either activated protein C, thrombin, FXa, FXIa, FXIIa, plasma kallikrein or plasmin were added. After incubation and addition of the appropriate substrate, plots of fractional activity versus inhibitor concentration were generated as described in Example 3.
(§2) After incubation of the substrate/inhibitor mixes at room temperature for 1-3 h, the appropriate substrate (20 μL) was added, and the absorbance at 405 nm was monitored. Controls lacking inhibitor and enzyme were assayed to measure the uninhibited and substrate hydrolysis rates, respectively. Plots of the fractional rate versus inhibitor concentration were fit by nonlinear regression analysis to equation 1 and apparent equilibrium dissociation constants (Ki *) were determined. […] The concentrations of activated protein C, thrombin and plasmin were based upon those of the supplier.
Procedure for FXa: as §1, §2
Procedure for activated protein C: as §1, §2

Consider “TF7I-C: APPI Kunitz domain variant (SEQ ID NO: 33) with Thr11Pro, Met17Leu, Ser19Leu and Gly39Tyr compared to wild type APPI”, for which the “prolongation of clotting time in PT assay” value is given as roughly 3 fold in test [1] (10 μM inhibitor, clotting initiated by TF membranes) and 4 fold in test [1] (ca. 20 μM inhibitor). Besides, the “prolongation of clotting time in APTT assay” value in test [2] was “greater than 10 fold”.
“VREVCSEQAETGPCRAMISRWYFDVTEGKCAPFFYGGCGGNRNNFDTEEYCMAVCGSA (disulfide 5-55, 14-38, 30-51) [APPI]”: the Ki on FXa is greater than 10 µM; at activated protein C, greater than 10 µM; at thrombin, greater than 10 µM; at TF.cndot.FVIIa (FVIIa 10 nM, TF1-243 50 nM, nonlinear regression, equation 1, read-out: Ki* with TF.cndot.FVIIa (FIG. 5, representative determination)), 300 nM; on TF.cndot.FVIIa (setting [3]), 301 ± 44 nM; at FXIIa it was greater than 10 µM.
With “first Kunitz domain of TFPI: first Kunitz domain (residues 22-79) of human tissue factor pathway inhibitor (MHSFCAFKADDGPCKAIMKRFFFNIFTRQCEEFIYGGCEGNQNRFESLEECKKMCTRD)”, the Ki in the test with TF.cndot.FVIIa (setting [3]) was roughly 600 nM.
